# Source: patent US11708346B2, “Treatment and prevention of neuropathic pain with P2Y14 antagonists” (Saint Louis University, priority 2019, dated 2023)
# “Also recorded” adds a separate entry of the source.
# What was measured:
# α2B = biological target: T1, α2B (Homo sapiens, UniProt P18089); experiment: PDSP off-target binding
# T1 sequence (P18089 1-450): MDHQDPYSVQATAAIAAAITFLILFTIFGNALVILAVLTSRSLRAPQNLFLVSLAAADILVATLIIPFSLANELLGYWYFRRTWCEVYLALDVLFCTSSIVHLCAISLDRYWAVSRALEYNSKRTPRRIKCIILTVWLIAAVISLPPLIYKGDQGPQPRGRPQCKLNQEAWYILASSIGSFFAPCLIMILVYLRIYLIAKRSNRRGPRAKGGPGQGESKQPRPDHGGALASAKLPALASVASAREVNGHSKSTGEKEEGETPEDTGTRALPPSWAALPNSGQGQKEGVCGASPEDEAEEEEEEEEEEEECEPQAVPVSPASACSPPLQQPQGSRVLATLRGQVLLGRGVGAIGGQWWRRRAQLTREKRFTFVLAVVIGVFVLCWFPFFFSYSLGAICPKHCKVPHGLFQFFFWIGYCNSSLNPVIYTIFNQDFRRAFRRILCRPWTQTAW
# DOR = DOR (Homo sapiens, UniProt P41143); experiment: PDSP off-target binding
# hP2Y14R = biological target: T2, hP2Y14R (Homo sapiens, UniProt Q15391); experiment: Competitive fluorescent binding assay in whole CHO-hP2Y14R cells, tracer 20, flow cytometry; settings: read-out: Human P2Y14R binding affinity (IC50)
# T2 construct: expressed in transfected cells; host or cells: CHO
# T2 sequence (Q15391 1-338): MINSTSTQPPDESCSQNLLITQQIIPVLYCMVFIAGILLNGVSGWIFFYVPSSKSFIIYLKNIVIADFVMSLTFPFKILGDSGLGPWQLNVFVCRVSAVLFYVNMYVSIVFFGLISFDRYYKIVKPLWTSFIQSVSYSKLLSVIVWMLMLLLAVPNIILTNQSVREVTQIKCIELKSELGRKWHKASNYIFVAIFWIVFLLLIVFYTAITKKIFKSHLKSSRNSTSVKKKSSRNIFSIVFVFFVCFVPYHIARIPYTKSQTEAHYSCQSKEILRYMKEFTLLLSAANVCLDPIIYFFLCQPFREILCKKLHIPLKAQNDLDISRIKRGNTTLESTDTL
# α2C = biological target: T3, α2C (Homo sapiens, UniProt P18825); experiment: PDSP off-target binding; settings: ± SEM
# T3 sequence (P18825 1-462): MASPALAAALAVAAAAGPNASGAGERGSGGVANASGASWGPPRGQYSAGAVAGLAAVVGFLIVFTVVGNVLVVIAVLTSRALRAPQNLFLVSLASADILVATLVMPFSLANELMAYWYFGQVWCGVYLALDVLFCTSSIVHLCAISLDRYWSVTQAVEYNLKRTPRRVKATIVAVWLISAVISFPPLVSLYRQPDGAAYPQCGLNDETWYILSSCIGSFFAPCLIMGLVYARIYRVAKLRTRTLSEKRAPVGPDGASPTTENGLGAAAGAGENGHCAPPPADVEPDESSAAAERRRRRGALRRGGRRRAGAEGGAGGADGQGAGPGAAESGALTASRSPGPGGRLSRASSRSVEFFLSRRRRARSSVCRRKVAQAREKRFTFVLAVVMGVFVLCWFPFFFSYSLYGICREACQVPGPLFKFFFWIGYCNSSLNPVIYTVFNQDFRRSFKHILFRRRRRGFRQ
# [1] = tested on: CCI-induced mechano-allodynia; experiment: Chronic constriction injury (CCI) of the sciatic nerve, mechano-allodynia by von Frey filaments; type: in vivo, mouse
# Description: Chronic constriction injury (CCI) to the sciatic nerve was performed using the Bennett model. […] Then the animals were placed on a sterile surgical field and the skin was wiped with topical antiseptic, Dermachlor solution (0.2% chlorhexidine gluconate). […] A small incision was created on the lateral side of the left hind limb parallel to the femur. The sciatic nerve was exposed and ligated on two sites about 1 mm apart above the trifurcation using silk sutures 6.0. The incision was closed with clips and lidocaine cream was applied.
# Mice were acclimated to the testing mesh-rack for 30 min before behavioral measurements. All behavioral testing was performed in the morning. The baseline measurements were determined on day 0 before CCI procedure. On day 7 post-CCI, baseline behavior responses were assessed, beginning prior to drug administration. Following drug injection, the behaviors were evaluated at multiple time points. Mechano-allodynia was quantified according to the hind paw withdrawal response to von Frey filaments stimulation by the Dixon up-and-down method. […] In presence of a positive withdrawal response a lighter filament was applied. If a negative response occurred, a stronger filament was used. At least four readings are obtained after the first positive response and the pattern of response was converted to a 50% paw withdrawal threshold (PWT), using the method described by Chaplan et al., J. Neurosci.
# Data are expressed as mean±SD and analyzed by two-tailed, two-way repeated measures ANOVA with Dunnett's post hoc comparisons to day 7 behavior. The percentage of reversal of peak CCI-induced pain afforded by each drug was calculated for each animal using their baseline and day 7 post CCI behavioral measures. % Reversal=(PWT(g)t−PWT(g)day7)/PWT(g)day0−PWT(g)day7)×100, where PWT(g)=paw withdrawal threshold, t=time after drug. […] All statistical analyses were performed using GraphPad Prism 8 (Graph Pad Inc., San Diego, Calif.). Significance was accepted at p<0.05.
# mP2Y14R = biological target: T4, mP2Y14R (Mus musculus, UniProt Q9ESG6)
# T4 sequence (Q9ESG6 1-338): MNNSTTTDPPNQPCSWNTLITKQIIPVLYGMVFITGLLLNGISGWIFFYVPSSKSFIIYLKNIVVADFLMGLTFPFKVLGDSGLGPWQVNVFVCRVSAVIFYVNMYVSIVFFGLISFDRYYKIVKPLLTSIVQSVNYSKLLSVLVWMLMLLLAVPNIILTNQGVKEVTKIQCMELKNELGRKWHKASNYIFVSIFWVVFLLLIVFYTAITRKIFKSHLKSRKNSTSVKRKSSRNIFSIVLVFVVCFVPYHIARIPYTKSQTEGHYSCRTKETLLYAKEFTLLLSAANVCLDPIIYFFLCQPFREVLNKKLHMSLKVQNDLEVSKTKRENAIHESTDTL
# α2A = biological target: T5, α2A (Homo sapiens, UniProt P08913); experiment: PDSP off-target binding
# T5 sequence (P08913 1-465): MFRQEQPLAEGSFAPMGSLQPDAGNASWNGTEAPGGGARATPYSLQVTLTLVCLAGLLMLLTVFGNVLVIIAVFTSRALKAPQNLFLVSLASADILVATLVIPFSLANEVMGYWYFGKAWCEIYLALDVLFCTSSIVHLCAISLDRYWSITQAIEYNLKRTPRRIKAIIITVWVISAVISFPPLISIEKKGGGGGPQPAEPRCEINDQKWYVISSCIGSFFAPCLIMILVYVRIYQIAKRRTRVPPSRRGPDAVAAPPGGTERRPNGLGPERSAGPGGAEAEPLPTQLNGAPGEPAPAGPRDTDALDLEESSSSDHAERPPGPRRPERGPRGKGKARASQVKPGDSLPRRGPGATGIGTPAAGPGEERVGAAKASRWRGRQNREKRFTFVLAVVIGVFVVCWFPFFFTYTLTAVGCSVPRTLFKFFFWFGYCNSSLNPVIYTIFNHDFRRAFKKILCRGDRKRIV
# β3 = β3 (Homo sapiens, UniProt P13945); experiment: PDSP off-target binding; settings: ± SEM
# 5HT1D = 5HT1D (Homo sapiens, UniProt P28221); experiment: PDSP off-target binding; settings: ± SEM
# 5HT1E = 5HT1E (Homo sapiens, UniProt P28566); experiment: PDSP off-target binding; settings: ± SEM
# TSPO = TSPO (Rattus norvegicus, UniProt P16257); experiment: PDSP off-target binding; settings: ± SEM
# [2] = 10 μmol/kg, i.p., day 7 post-CCI, n = 3
# Sequence of β3 (P13945 whole entry): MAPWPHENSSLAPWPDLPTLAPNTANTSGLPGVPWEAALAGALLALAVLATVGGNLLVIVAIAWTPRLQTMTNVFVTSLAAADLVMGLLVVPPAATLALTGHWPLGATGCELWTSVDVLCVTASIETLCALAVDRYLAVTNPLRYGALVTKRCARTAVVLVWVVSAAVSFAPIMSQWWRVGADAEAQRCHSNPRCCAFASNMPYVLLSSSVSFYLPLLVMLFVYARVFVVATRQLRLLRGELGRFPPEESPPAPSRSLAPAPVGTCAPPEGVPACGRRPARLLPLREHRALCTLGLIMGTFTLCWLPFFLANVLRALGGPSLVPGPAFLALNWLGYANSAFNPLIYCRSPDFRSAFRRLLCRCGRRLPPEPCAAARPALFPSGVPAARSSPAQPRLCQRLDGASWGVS
# Sequence of TSPO (P16257 whole entry): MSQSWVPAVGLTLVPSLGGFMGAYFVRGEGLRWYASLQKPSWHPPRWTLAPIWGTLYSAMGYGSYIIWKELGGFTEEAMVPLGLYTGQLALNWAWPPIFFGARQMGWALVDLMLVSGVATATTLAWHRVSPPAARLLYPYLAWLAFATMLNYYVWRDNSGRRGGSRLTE
# Sequence of 5HT1E (P28566 whole entry, species assumed): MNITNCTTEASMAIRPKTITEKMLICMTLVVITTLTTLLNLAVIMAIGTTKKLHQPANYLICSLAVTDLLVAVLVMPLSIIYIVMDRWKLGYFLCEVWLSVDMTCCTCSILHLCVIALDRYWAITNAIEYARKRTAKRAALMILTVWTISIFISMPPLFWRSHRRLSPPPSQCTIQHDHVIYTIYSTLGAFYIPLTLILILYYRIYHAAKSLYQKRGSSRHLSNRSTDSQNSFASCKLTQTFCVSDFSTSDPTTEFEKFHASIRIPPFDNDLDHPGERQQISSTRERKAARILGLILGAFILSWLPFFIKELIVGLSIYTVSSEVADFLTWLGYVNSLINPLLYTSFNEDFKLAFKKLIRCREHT
# Sequence of 5HT1D (P28221 whole entry, species assumed): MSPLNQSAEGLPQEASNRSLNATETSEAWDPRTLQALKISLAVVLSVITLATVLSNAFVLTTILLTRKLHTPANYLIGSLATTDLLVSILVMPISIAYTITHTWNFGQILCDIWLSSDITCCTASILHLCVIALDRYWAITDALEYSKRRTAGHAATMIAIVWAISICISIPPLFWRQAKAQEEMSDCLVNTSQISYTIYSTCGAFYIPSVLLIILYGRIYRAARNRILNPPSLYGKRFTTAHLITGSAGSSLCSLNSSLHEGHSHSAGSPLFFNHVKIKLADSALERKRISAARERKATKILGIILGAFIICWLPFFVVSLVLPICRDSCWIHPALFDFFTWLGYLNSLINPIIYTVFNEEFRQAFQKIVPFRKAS
# Sequence of DOR (P41143 whole entry): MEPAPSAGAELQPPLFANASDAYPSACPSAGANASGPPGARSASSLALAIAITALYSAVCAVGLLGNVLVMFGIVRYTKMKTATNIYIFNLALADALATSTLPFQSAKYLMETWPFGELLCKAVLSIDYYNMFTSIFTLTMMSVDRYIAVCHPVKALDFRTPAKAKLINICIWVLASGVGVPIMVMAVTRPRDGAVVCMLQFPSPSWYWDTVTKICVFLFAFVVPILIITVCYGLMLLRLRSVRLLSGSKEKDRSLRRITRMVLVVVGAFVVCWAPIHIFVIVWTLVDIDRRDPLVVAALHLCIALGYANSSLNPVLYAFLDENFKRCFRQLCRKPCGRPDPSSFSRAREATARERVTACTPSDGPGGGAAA
Compound,Ki (α2B) [µM],Ki (DOR) [µM],IC50 (hP2Y14R) [nM],Ki (α2C) [nM],"In vivo efficacy compared with a comparator compound ([1]; 10 μmol/kg i.p., 6 vs 7, 4 vs 1)","Effect at 0.5 h (% ± SD), percent inhibition of mechano-allodynia [1, 2] [%]","Effect at 1 h (% + SD), percent inhibition of mechano-allodynia [1, 2] [%]","Effect at 2 h (% ± SD), percent inhibition of mechano-allodynia [1, 2] [%]","Effect at 3 h (% ± SD), percent inhibition of mechano-allodynia [1, 2] [%]","Effect at 5 h (% ± SD), percent inhibition of mechano-allodynia [1, 2] [%]","Reversal of CCI-induced mechano-allodynia ([1]; 10 μmol/kg, i.p., ipsilateral hind paw, day 7 post-CCI)",mP2Y14R affinity compared to isomer 6 (mP2Y14R; 7 vs 6),"IC50 (mP2Y14R; read-out: Mouse P2Y14R binding affinity (IC50), mP2Y14R in HEK293 cells, tracer 20) [nM]",Ki (α2A) [nM],Ki (β3) [nM],Ki (5HT1D) [nM],Ki (5HT1E) [µM],Ki (TSPO) [nM]
"O=C(O)c1cc(-c2ccc(C3CCNCC3)cc2)cc(-c2cn(-c3ccc(C(F)(F)F)cc3)nn2)c1 [Compound 7, 4′-(Piperidin-4-yl)-5-(1-(4-(trifluormethyl)phenyl)-1H-1,2,3-triazol-4-yl)-[1,1′-biphenyl]-3-carboxylic acid]",5.33,3.79,664 ± 175,2710,no statistical difference; also recorded: similar,70.7 ± 16.5,86.8 ± 2.4,71.4 ± 10.2,55.1 ± 18.6,6.7 ± 5.9,reversed the allodynia,nearly equipotent,246 ± 63,959,,,,
"CC(=O)N1CCC(c2ccc(-c3cc(C(=O)O)cc4cc(-c5ccc(C(F)(F)F)cc5)ccc34)cc2)CC1 [Compound 4, 4-(4-(1-(Acetyl)piperidin-4-yl)phenyl)-7-(4-(trifluoromethyl)phenyl)-2-naphthoic acid]",,,,,,,,,,,,,,,860,1750,3.91,508
